Activity calls are given as the source filed them. No cut-off for these calls is given here.
Legend:
[1] = target: T1, Glucagon-like peptide 1 receptor (Homo sapiens, UniProt P43220); test: Agonist activity at N-terminal HA-tagged human GLP-1R expressed in HEK293 cells assessed as effect on intracellular cAMP accumulation incubated for 30 mins by LANCA ultra cAMP assay; type: functional, cell-based
hERG (KCNH2) = hERG (KCNH2) (Homo sapiens, UniProt Q12809); test: Inhibition of hERG at 40 uM relative to control
Chain of hERG (KCNH2) (Q12809 whole entry): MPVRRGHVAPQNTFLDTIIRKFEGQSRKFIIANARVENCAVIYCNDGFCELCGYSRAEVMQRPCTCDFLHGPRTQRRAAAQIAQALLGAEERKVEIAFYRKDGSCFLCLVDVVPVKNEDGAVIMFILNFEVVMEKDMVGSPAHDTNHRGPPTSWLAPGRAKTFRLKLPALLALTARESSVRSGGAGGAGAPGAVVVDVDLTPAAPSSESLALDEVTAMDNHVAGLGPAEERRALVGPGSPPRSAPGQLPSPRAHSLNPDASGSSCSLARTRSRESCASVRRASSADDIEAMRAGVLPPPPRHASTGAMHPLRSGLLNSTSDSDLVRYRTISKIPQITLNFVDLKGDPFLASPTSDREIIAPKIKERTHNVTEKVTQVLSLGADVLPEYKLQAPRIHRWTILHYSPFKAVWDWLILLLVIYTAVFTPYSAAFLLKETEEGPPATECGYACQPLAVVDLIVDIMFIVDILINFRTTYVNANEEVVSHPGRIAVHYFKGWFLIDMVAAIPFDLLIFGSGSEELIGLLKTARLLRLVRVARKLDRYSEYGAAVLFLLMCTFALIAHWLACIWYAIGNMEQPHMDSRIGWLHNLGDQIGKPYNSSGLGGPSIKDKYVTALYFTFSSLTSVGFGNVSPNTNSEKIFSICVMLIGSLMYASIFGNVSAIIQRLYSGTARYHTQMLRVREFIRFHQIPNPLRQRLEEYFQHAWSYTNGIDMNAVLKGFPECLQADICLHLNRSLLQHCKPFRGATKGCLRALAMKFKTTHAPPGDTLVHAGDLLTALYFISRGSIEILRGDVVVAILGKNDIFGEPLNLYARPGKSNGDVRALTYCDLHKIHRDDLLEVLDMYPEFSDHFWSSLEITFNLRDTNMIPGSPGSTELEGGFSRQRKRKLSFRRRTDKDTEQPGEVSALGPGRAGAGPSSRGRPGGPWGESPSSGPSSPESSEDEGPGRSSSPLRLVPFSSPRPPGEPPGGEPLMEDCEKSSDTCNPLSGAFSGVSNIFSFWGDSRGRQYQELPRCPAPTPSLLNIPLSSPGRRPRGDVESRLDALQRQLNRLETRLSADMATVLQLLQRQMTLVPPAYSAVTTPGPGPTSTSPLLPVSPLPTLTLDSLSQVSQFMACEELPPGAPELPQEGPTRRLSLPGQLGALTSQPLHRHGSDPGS

[2] = target: Voltage-gated inwardly rectifying potassium channel KCNH2 (Homo sapiens, UniProt Q12809); test: Inhibition of hERG
Chain of Voltage-gated inwardly rectifying potassium channel KCNH2 (Q12809 whole entry): as above

[3] = Stability in rat liver microsomes assessed as half-life at 1 uM measured upto 60 mins in the presence of NADPH by LC-MS/MS analysis; type: ADME, Microsome
[4] = Stability in mouse liver microsomes assessed as intrinsic clearance at 1 uM measured upto 60 mins in the presence of NADPH by LC-MS/MS analysis; type: ADME, Microsome; conditions: 1 h
[5] = Drug concentration in C57BL/6J mouse plasma at 5 mg/kg, po measured after 1 hrs by LC-MS/MS analysis; type: ADME, organism-based
[6] = Stability in mouse liver microsomes assessed as half-life at 1 uM measured upto 60 mins in the presence of NADPH by LC-MS/MS analysis; type: ADME, Microsome
[7] = Stability in rat liver microsomes assessed as intrinsic clearance at 1 uM measured upto 60 mins in the presence of NADPH by LC-MS/MS analysis; type: ADME, Microsome; conditions: 1 h
[8] = Drug concentration in C57BL/6J mouse plasma at 5 mg/kg, po measured after 4 hrs by LC-MS/MS analysis; type: ADME, organism-based
[9] = Stability in human liver microsomes assessed as half-life at 1 uM measured upto 60 mins in the presence of NADPH by LC-MS/MS analysis; type: ADME, Microsome
[10] = Apparent permeability across apical to basolateral side in human Caco-2 cells at 10 uM measured after 95 mins by LC-MS/MS analysis; type: ADME, cell-based
[11] = Stability in human liver microsomes assessed as intrinsic clearance at 1 uM measured upto 60 mins in the presence of NADPH by LC-MS/MS analysis; type: ADME, Microsome; conditions: 1 h
[12] = target: T1, Glucagon-like peptide 1 receptor; test: (§1) Partial agonist activity at N-terminal HA-tagged human GLP-1R expressed in HEK293 cells co-expressing Smbit-beta-arrestin 1/2 and GLP-1R-LgBit assessed as beta-arrestin-1 recruitment measured after 5 mins by bioluminescence based NanoBiT assay; type: functional, cell-based
[13] = target: T1, Glucagon-like peptide 1 receptor; test: Agonist activity at N-terminal HA-tagged human GLP-1R expressed in HEK293 cells assessed as change in intracellular calcium level by Fluo-4 AM dye based calcium mobilization assay; type: functional, cell-based
[14] = target: T1, Glucagon-like peptide 1 receptor; test: Potency index, ratio of danuglipron EC50 to test compound EC50 for agonist activity at N-terminal HA-tagged human GLP-1R expressed in HEK293 cells assessed as change in intracellular calcium level by Fluo-4 AM dye based calcium mobilization assay; type: functional, cell-based
[15] = target: T1, Glucagon-like peptide 1 receptor; test: as §1, with “Potency index, ratio of danuglipron EC50 to test compound EC50 for partial” for “Partial”, “beta-arrestin-2” for “beta-arrestin-1”; type: functional, cell-based
Mus musculus [16] = test: (§2) In vivo agonist activity at GLP-1R in C57BL/6J mouse with human GLP-1R knock-in assessed as reduction in blood glucose level at 1 mg/kg, po pre-treated with compound for 1 hrs followed by glucose administration and measured upto 90 mins by Oral Glucose Tolerance Test; type: functional, organism-based; conditions: time <= 150.0 min
[17] = Cmax in Sprague-Dawley rat at 5 mg/kg, po measured upto 24 hrs by LC-MS/MS analysis; type: ADME, organism-based; design: time < 24 hrs, dose 5 mg/kg, route po; conditions: in vivo
Mus musculus [18] = test: In vivo agonist activity at GLP-1R in C57BL/6J mouse with human GLP-1R knock-in assessed as reduction in food intake at 30 mg/kg, sc measured after 2.5 to 12 hrs in dark cycle; type: functional, organism-based; conditions: time 2.5-12 hrs
[19] = Tmax in Sprague-Dawley rat at 5 mg/kg, po measured upto 24 hrs by LC-MS/MS analysis; type: ADME, organism-based; conditions: in vivo
[20] = target: T2, Glucagon-like peptide 1 receptor (Mus musculus) (UniProt O35659); test: Activation of mouse GLP-1R
T2 sequence (whole entry): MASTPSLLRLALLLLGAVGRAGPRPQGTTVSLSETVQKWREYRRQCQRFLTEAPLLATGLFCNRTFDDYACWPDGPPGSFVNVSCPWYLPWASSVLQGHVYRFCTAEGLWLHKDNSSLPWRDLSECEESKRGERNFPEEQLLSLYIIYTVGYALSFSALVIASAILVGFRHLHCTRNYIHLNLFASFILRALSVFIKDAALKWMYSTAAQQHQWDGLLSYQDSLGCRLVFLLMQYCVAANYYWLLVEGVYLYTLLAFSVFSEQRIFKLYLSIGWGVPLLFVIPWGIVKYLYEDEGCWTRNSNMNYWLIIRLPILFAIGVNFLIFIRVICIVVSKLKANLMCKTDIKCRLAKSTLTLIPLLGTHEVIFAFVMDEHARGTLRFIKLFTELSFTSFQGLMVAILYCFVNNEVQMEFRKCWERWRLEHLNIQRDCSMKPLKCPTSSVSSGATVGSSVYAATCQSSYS

Mus musculus [21] = test: as §2, with “administration for 3 hrs and further treated with second glucose dose” for “administration”, “270” for “90”; type: functional, organism-based; conditions: time <= 330.0 min
[22] = target: T1, Glucagon-like peptide 1 receptor; test: as §1, with “Potency index, ratio of danuglipron EC50 to test compound EC50 for partial” for “Partial”; type: functional, cell-based
[23] = target: T3, Gastric inhibitory polypeptide receptor (Homo sapiens) (UniProt P48546); test: Agonist activity at GIPR (unknown origin) expressed in HEK293 cells assessed as effect on intracellular cAMP accumulation incubated for 30 mins by LANCA ultra cAMP assay; type: functional, cell-based
T3 sequence (whole entry): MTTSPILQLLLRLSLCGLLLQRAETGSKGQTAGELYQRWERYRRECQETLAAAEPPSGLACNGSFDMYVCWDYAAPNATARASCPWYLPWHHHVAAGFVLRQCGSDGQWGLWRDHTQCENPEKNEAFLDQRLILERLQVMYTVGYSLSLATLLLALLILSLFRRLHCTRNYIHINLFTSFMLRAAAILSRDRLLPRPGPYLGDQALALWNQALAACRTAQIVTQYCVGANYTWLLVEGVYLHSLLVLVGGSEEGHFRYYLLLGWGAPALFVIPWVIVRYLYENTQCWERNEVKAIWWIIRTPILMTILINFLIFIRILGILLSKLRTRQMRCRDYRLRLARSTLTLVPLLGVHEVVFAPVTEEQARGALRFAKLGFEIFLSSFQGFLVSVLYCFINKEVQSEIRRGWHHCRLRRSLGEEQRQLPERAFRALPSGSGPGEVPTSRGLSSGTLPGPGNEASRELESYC

[24] = target: T1, Glucagon-like peptide 1 receptor; test: Partial agonist activity at N-terminal HA-tagged human GLP-1R expressed in HEK293 cells co-expressing Smbit-beta-arrestin 1/2 and GLP-1R-LgBit assessed as beta-arrestin-2 recruitment measured after 5 mins by bioluminescence based NanoBiT assay; type: functional, cell-based
[25] = Half-life in Sprague-Dawley rat at 5 mg/kg, po measured upto 24 hrs by LC-MS/MS analysis; type: ADME, organism-based; conditions: in vivo
[26] = AUClast in Sprague-Dawley rat at 5 mg/kg, po measured upto 24 hrs by LC-MS/MS analysis; type: ADME, organism-based; design: dose 5 mg/kg, time < 24 hrs, route po; conditions: in vivo
[27] = target: Glucagon receptor (Homo sapiens) (UniProt P47871); test: Agonist activity at GCGR (unknown origin) expressed in HEK293 cells assessed as effect on intracellular cAMP accumulation incubated for 30 mins by LANCA ultra cAMP assay; type: functional, cell-based
Chain of Glucagon receptor (Homo sapiens) (P47871 whole entry): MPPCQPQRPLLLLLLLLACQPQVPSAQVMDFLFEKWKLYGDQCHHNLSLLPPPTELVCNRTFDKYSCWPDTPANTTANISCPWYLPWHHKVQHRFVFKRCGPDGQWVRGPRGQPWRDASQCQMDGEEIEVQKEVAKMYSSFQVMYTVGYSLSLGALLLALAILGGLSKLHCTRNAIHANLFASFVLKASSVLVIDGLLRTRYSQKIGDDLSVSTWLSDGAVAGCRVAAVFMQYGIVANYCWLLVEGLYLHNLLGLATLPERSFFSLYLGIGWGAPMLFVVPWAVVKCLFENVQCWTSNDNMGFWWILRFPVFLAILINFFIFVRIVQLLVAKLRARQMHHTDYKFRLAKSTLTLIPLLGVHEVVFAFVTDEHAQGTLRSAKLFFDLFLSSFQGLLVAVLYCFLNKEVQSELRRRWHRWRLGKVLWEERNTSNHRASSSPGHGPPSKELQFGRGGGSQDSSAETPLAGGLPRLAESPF

[28] = target: T4, Glucagon-like peptide 2 receptor (Homo sapiens) (UniProt O95838); test: Agonist activity at GLP-2R (unknown origin) expressed in HEK293 cells assessed as effect on intracellular cAMP accumulation incubated for 30 mins by LANCA ultra cAMP assay; type: functional, cell-based
T4 sequence (whole entry): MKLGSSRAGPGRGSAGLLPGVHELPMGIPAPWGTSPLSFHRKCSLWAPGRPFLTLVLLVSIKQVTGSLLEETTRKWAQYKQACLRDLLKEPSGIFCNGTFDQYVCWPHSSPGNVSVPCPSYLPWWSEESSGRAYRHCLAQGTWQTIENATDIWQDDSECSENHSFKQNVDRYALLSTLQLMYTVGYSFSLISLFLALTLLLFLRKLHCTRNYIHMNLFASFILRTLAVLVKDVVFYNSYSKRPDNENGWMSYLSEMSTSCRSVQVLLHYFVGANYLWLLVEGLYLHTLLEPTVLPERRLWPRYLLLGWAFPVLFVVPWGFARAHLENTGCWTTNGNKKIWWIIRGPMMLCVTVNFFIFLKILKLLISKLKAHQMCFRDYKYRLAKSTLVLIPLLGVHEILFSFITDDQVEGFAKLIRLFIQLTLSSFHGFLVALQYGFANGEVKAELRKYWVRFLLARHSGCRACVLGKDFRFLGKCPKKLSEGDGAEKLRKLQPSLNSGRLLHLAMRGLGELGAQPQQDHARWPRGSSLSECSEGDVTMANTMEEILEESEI

T1 sequence (P43220 whole entry): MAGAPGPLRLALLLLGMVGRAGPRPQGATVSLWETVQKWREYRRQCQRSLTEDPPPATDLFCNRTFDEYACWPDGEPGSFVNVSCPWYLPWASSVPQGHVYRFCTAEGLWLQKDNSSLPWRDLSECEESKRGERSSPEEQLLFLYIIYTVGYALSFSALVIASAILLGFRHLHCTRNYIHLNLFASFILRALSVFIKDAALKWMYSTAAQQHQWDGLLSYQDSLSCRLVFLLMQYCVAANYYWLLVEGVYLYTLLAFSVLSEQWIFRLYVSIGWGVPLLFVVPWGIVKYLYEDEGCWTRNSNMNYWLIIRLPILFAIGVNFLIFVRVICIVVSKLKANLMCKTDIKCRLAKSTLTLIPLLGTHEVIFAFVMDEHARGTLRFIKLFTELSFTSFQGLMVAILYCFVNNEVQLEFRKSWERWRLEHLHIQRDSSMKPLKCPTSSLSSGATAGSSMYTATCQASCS

EC50 [1] | half-life at 1 µM [3] | CLH [4] | half-life at 1 µM [6] | CLH [7] | half-life at 1 µM [9] | CLH [11] | SMILES | inhibition at 40 µM (hERG (KCNH2)) | IC50 [2] | also measured
> 10000 nM | – | – | – | – | – | – | N#Cc1ccc(COc2cccc(N3CC4(CC3=O)CN(Cc3nc5ccc(C(=O)O)cc5n3C[C@@H]3CCO3)C4)n2)c(F)c1 | – | – | –
5010 nM | – | – | – | – | – | – | N#Cc1ccc(COc2cccc(N3CCC4(CN(Cc5nc6ccc(C(=O)O)cc6n5C[C@@H]5CCO5)C4)C3)n2)c(F)c1 | – | – | –
– | 134 min | 12 mL/min/g | 182 min | 16 mL/min/g | 327 min | 6 mL/min/g | COc1cc(C#N)ccc1COc1cccc(N2C=NN(Cc3nc4c(F)cc(C(=O)O)cc4n3C[C@@H]3CCO3)CC2)n1 | 50% | > 40 µM | concentration at 1 h [5]: 12 ng/mL; concentration at 4 h [8]: 3 ng/mL; Papp A→B at 1.583 h, 10 µM [10]: 0.19 ×10⁻⁶ cm/s
– | 163 min | 13 mL/min/g | 168 min | 13 mL/min/g | 415 min | 5 mL/min/g | N#Cc1ccc(COc2cccc(C3CCN(Cc4nc5ccc(C(=O)O)cc5n4C[C@@H]4CCO4)CC3)n2)c(F)c1 [DANUGLIPRON] | 90% | – | Activity (Mus musculus [16]): Active; Activity (Mus musculus [18]): Active; Activity [20]: inactive
0.6 nM | – | – | – | – | – | – | CC1CN(c2cccc(OCc3ccc(C#N)cc3F)n2)C=NN1Cc1nc2ccc(C(=O)O)cc2n1C[C@@H]1CCO1 (stereo partly drawn) | – | – | –

More lines, now with the values behind:

SMILES | EC50 [1] | half-life at 1 µM [3] | CLH [4] | half-life at 1 µM [6] | CLH [7] | half-life at 1 µM [9] | CLH [11] | inhibition at 40 µM (hERG (KCNH2)) | IC50 [2] | also measured
N#Cc1ccc(COc2cccc(N3C=NN(Cc4nc5ccc(C(=O)O)cc5n4C[C@@H]4CCO4)CC3)n2)c(F)c1 | – | – | – | – | – | – | – | 48% | > 40 µM | –
N#Cc1ccc(COc2cccc(N3C=NN(Cc4nc5c(F)cc(C(=O)O)cc5n4C[C@@H]4CCO4)CC3)n2)c2occc12 | – | 63 min | 17 mL/min/g | 124 min | 33 mL/min/g | 149 min | 14 mL/min/g | 30% | > 40 µM | –
COc1cc(C(F)(F)F)ccc1COc1cccc(N2C=NN(Cc3nc4c(F)cc(C(=O)O)cc4n3C[C@@H]3CCO3)CC2)n1 | 0.006 nM | 75 min | 27 mL/min/g | 77 min | 28 mL/min/g | 172 min | 12 mL/min/g | 20% | > 40 µM | EC50 [12]: 175 nM; concentration at 1 h [5]: 132 ng/mL; EC50 [13]: 168 nM; Ratio EC50 [14]: 10; Ratio EC50 [15]: 10; Activity (Mus musculus [16]): Active; Cmax [17]: 130 ng/mL; Activity (Mus musculus [18]): Active; concentration at 4 h [8]: 35 ng/mL; Tmax [19]: 15 min; Activity [20]: inactive; Activity (Mus musculus [21]): Active; Ratio EC50 [22]: 10; Activity [23]: inactive; EC50 [24]: 136 nM; half-life [25]: 63 min; Papp A→B at 1.583 h, 10 µM [10]: 0.57 ×10⁻⁶ cm/s; AUC(0-t) at 24 h [26]: 70 ng·h/mL; Activity [27]: inactive; Activity [28]: inactive
